Test results published in patent publication US8471005B2 (Cephalon, Inc., priority 2008, dated 2013).
Read-outs that look alike come from different tables or passages of the source.

Assays:
ALK = molecular target: T1, ALK (Homo sapiens, UniProt Q9UM73); test: ALK Kinase Assay (ELISA/TRF, PLC-γ substrate); assay type: biochemical; conditions: read-out: ALK Potency
T1 construct: host or cells: baculovirus expression system
How it was run: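 IC50 values derive from percent inhibition plotted against log10 compound concentration and fitted to a variable-slope sigmoidal equation. The underlying reaction used 30 ng/ml ALK acting on immobilized PLC-γ (10 μg/mL in TBS) at 37° C for 15 minutes, read with Eu-N1 PT66 antibody.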

JAK2 = molecular target: T2, JAK2 (Homo sapiens, UniProt O60674); test: Recombinant Human JAK2 Kinase Assay (TRF); assay type: biochemical; conditions: read-out: JAK2 Potency
T2 construct: host or cells: baculovirus expression system
How it was run: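 Baculovirus-expressed JAK2 (15 ng/ml) phosphorylated a biotinylated 15-mer peptide captured on Neutravidin-coated plates, in 20 mM HEPES pH 7.2 with 0.2 μM ATP, 1 mM MnCl2, 0.1% BSA and 2.5% DMSO. Reaction ran 20 min at room temperature; phosphopeptide was detected by time-resolved fluorescence with Eu-N1-labelled PY100 antibody.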

[1] = ALK kinase inhibition, 1 μM ATP
[2] = JAK2 kinase inhibition, 0.2 μM ATP

T1 sequence (Q9UM73 19-1620): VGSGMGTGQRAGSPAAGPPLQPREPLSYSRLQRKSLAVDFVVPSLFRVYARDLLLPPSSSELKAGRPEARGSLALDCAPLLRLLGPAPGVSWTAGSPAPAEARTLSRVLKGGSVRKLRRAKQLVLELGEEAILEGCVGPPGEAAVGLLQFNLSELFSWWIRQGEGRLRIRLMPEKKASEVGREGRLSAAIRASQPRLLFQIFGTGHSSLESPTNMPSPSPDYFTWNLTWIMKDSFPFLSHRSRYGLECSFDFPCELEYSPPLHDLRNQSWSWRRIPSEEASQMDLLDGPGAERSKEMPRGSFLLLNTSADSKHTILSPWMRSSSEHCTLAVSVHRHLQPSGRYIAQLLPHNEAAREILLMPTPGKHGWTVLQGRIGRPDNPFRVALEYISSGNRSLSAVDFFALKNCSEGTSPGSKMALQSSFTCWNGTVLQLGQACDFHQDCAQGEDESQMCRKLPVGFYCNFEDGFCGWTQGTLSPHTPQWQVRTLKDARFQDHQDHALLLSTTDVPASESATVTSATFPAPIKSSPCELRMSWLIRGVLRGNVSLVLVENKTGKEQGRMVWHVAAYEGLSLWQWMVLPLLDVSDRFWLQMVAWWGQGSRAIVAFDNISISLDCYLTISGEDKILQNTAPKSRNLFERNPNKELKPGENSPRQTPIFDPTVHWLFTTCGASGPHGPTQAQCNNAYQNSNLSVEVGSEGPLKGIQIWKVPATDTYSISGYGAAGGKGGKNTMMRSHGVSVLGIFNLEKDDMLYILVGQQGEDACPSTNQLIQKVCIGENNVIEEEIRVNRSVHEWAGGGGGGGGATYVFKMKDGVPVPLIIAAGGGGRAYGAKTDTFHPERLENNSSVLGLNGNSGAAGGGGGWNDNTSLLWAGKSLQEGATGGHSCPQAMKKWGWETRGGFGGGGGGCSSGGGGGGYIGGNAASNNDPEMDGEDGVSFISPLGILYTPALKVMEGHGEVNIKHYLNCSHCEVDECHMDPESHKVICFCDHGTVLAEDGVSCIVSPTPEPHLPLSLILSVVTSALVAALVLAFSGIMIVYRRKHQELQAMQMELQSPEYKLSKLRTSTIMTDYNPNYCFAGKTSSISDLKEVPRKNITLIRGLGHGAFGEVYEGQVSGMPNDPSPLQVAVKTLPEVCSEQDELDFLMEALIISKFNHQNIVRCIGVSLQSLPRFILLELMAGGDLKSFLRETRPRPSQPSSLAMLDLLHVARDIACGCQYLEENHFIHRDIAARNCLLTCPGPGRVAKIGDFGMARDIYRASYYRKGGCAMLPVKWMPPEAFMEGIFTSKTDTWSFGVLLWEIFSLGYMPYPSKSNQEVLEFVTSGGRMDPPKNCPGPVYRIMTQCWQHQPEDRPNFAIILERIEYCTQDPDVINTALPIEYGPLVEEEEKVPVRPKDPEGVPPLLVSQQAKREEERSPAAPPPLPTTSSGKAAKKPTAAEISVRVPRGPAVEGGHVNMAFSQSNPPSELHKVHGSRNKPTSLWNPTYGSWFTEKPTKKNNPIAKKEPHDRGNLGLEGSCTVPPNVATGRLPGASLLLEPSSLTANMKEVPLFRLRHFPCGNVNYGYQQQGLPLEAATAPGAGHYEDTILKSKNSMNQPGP
T2 sequence (O60674 whole entry): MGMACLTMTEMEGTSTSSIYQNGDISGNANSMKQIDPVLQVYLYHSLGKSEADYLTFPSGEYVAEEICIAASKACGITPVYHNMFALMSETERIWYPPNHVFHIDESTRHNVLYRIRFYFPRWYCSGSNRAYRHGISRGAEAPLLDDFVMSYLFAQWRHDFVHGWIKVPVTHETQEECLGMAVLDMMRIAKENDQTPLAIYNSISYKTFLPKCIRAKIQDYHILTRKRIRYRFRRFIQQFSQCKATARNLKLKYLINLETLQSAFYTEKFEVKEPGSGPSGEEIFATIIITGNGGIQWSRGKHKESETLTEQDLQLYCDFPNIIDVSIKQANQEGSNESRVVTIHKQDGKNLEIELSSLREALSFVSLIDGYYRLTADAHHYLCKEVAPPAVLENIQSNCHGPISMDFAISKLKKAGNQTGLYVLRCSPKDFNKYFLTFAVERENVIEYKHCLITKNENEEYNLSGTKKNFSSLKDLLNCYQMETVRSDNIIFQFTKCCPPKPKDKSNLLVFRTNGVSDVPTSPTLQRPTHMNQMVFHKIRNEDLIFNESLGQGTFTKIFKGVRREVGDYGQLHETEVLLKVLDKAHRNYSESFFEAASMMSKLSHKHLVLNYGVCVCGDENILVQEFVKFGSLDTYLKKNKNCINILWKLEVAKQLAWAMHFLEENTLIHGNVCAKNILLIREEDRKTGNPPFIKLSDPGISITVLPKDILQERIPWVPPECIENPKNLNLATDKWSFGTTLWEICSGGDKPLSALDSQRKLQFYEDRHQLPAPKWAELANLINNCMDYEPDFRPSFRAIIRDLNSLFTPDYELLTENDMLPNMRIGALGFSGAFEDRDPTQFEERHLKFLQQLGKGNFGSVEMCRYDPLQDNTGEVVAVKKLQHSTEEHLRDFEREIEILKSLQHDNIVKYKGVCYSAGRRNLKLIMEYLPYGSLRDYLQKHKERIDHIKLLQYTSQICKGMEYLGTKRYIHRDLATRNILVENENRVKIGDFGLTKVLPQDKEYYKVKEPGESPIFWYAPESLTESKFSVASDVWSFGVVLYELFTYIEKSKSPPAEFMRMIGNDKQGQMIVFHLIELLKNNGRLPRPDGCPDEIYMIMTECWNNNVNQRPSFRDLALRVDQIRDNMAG

| Compound | IC50 (ALK; ALK Kinase Inhibition) | IC50 (JAK2; JAK2 Kinase Inhibition) | IC50 (ALK; [1]) | IC50 (JAK2; [2]) |
| --- | --- | --- | --- | --- |
| COc1cc([C@@]2(O)CCN(CCF)C[C@@H]2O)ccc1Nc1ncc2ccc(-c3ccccc3OC)n2n1 (racemic) [Example 833, (±)-(3S,4S)-1-(2-Fluoro-ethyl)-4-{3-methoxy-4-[7-(2-methoxy-phenyl)-pyrrolo[2,1-f][1,2,4]triazin-2-ylamino]-phenyl}-piperidine-3,4-diol] | – | – | < 100 nM | < 100 nM |
| CN(c1ccccc1-c1ccc2cnc(Nc3cncc(C(N)=O)c3)nn12)S(C)(=O)=O [Example 666, 5-{7-[2-(Methanesulfonyl-methyl-amino)-phenyl]-pyrrolo[2,1-f][1,2,4]triazin-2-ylamino}-nicotinamide] | – | – | 1000 to 10000 nM | < 100 nM |
| COc1ccc(-c2ccc3cnc(Nc4ccc(Cl)c(CN5CCOCC5)c4)nn23)cn1 [Example 973, (4-Chloro-3-morpholin-4-ylmethyl-phenyl)-[7-(6-methoxy-pyridin-3-yl)-pyrrolo[2,1-f][1,2,4]triazin-2-yl]-amine] | – | – | > 10000 nM | < 100 nM |
| CN(C)CCNC(=O)c1ccc(-c2ccc3cnc(Nc4ccc(N5CCOCC5)cc4)nn23)cc1 [Example 52, N-(2-Dimethylamino-ethyl)-4-[2-(4-morpholin-4-yl-phenylamino)-pyrrolo[2,1-f][1,2,4]triazin-7-yl]-benzamide] | 100 to 1000 nM | < 100 nM | – | – |
| CN1CCC(c2ccc(Nc3ncc4ccc(-c5cccc(S(=O)(=O)N(C)C)c5)n4n3)cc2)CC1 [Example 902, N,N-Dimethyl-3-{2-[4-(1-methyl-piperidin-4-yl)phenylamino]-pyrrolo[2,1-f][1,2,4]triazin-7-yl}-benzenesulfonamide] | – | – | 100 to 1000 nM | < 100 nM |
| c1ccc2c(c1)cc1cnc(Nc3ccc(N4CCOCC4)cc3)nn12 [Example 261, (4-Morpholin-4-yl-phenyl)-[1,2,4]triazino[1,6-a]indol-2-yl-amine] | 100 to 1000 nM | < 100 nM | – | – |
| CS(=O)(=O)Nc1cccc(-c2ccc3cnc(Nc4cccc(N5CCOCC5)c4)nn23)c1 [Example 183, N-{3-[2-(3-Morpholin-4-yl-phenylamino)-pyrrolo[2,1-f][1,2,4]triazin-7-yl]-phenyl}-methanesulfonamide] | 100 to 1000 nM | < 100 nM | – | – |
| COc1cc2c(cc1Nc1ncc3ccc(-c4cccc5c4OCC5)n3n1)CCNCC2 [Example 709, [7-(2,3-Dihydro-benzofuran-7-yl)-pyrrolo[2,1-f][1,2,4]triazin-2-yl]-(8-methoxy-2,3,4,5-tetrahydro-1H-3-benzazepin-7-yl)-amine] | – | – | < 100 nM | < 100 nM |
| CCN1CCOC(c2ccc(Nc3ncc4ccc(-c5cccc(S(=O)(=O)NC(C)(C)C)c5)n4n3)cc2)C1 (stereo not shown) [Example 653, N-tert-Butyl-3-{2-[4-(4-ethyl-morpholin-2-yl)-phenylamino]-pyrrolo[2,1-f][1,2,4]triazin-7-yl}benzenesulfonamide] | – | – | 100 to 1000 nM | < 100 nM |
| COc1ccccc1-c1ccc2cnc(Nc3ccc(Cl)c(OCC4CCCN4C)c3)nn12 (stereo not shown) [Example 1011, [4-Chloro-3-(1-methyl-pyrrolidin-2-ylmethoxy)-phenyl]-[7-(2-methoxy-phenyl)-pyrrolo[2,1-f][1,2,4]triazin-2-yl]-amine] | – | – | 100 to 1000 nM | < 100 nM |
| COc1cc(N2CCC(N3CCN(C(=O)OCc4ccccc4)CC3)CC2)ccc1Nc1ncc2ccc(-c3ccccc3OC)n2n1 [Example 531, 4-(1-{3-Methoxy-4-[7-(2-methoxy-phenyl)-pyrrolo[2,1-f][1,2,4]triazin-2-ylamino]-phenyl}-piperidin-4-yl)-piperazine-1-carboxylic acid benzyl ester] | – | – | < 100 nM | 100 to 1000 nM |
| COc1ccccc1-c1ccc2cnc(Nc3cnn(C4CCNCC4)c3)nn12 [Example 716, 4-{4-[7-(2-Methoxy-phenyl)-pyrrolo[2,1-f][1,2,4]triazin-2-ylamino]-pyrazol-1-yl}-piperidine] | – | – | < 100 nM | < 100 nM |
| [4-(4-Diethylamino-piperidin-1-yl)-phenyl]-[7-(4-methanesulfonyl-phenyl)-pyrrolo[2,1-f][1,2,4]triazin-2-yl]-amine [Example 1136] | – | – | 100 to 1000 nM | < 100 nM |
| CN1CCN(C2CCCN(c3ccc(Nc4ncc5ccc(-c6cccnc6)n5n4)cc3)C2)CC1 (stereo not shown) [Example 352, {4-[3-(4-Methyl-piperazin-1-yl)-piperidin-1-yl]-phenyl}-(7-pyridin-3-yl-pyrrolo[2,1-f][1,2,4]triazin-2-yl)-amine] | 100 to 1000 nM | < 100 nM | – | – |

Other lines, results leading:

| IC50 (ALK; ALK Kinase Inhibition) | IC50 (JAK2; JAK2 Kinase Inhibition) | IC50 (ALK; [1]) | IC50 (JAK2; [2]) | Compound |
| --- | --- | --- | --- | --- |
| < 100 nM | < 100 nM | – | – | COCc1ccccc1-c1ccc2cnc(Nc3ccc(N4CCN(C)CC4)cc3)nn12 [Example 1500, [7-(2-Methoxymethyl-phenyl)-pyrrolo[2,1-f][1,2,4]triazin-2-yl]-[4-(4-methyl-piperazin-1-yl)-phenyl]-amine] |
| 1000 to 10000 nM | < 100 nM | – | – | Cn1cc(-c2ccc3cnc(Nc4cccc(NS(C)(=O)=O)c4)nn23)cn1 [Example 1389, N-{3-[7-(1-Methyl-1H-pyrazol-4-yl)-pyrrolo[2,1-f][1,2,4]triazin-2-ylamino]-phenyl}-methanesulfonamide] |
| – | – | 1000 to 10000 nM | < 100 nM | COc1ccccc1-c1ccc2cnc(Nc3ccc(C4C(=O)N(C)CCN4C)cc3)nn12 (stereo not shown) [Example 1076, 3-{4-[7-(2-Methoxy-phenyl)-pyrrolo[2,1-f][1,2,4]triazin-2-ylamino]-phenyl}-1,4-dimethyl-piperazin-2-one] |
| – | – | 100 to 1000 nM | < 100 nM | CS(=O)(=O)c1cccc(-c2ccc3cnc(Nc4ccc(C5CCNCC5O)cc4)nn23)c1 (stereo not shown) [Example 1018, 4-{4-[7-(3-methanesulfonyl-phenyl)-pyrrolo[2,1-f][1,2,4]triazin-2-ylamino]-phenyl}-piperidine-3-ol] |
| – | – | 100 to 1000 nM | < 100 nM | CN1CCN(c2ccc(Nc3ncc4ccc(-c5cccc(NS(C)(=O)=O)c5)n4n3)nc2)CC1 [Example 1194, N-(3-{2-[5-(4-Methyl-piperazin-1-yl)-pyridin-2-ylamino]-pyrrolo[2,1-f][1,2,4]triazin-7-yl}-phenyl)-methanesulfonamide] |
| – | – | 100 to 1000 nM | < 100 nM | CC(C)(C)NS(=O)(=O)c1cccc(-c2ccc3cnc(Nc4ccc5nc[nH]c5c4)nn23)c1 [Example 1299, 3-[2-(3H-Benzimidazol-5-ylamino)-pyrrolo[2,1-f][1,2,4]triazin-7-yl]-N-tert-butyl-benzenesulfonamide] |
| – | – | < 100 nM | 100 to 1000 nM | COc1cc(C2CCN(CC(=O)NC(CO)CO)CC2)ccc1Nc1ncc2ccc(-c3ccccc3OC)n2n1 [Example 1279, N-(2-Hydroxy-1-hydroxymethyl-ethyl)-2-(4-{3-methoxy-4-[7-(2-methoxy-phenyl)-pyrrolo[2,1-f][1,2,4]triazin-2-ylamino]-phenyl}-piperidin-1-yl)-acetamide] |
| < 100 nM | 100 to 1000 nM | – | – | COc1cc(N2CCC(N3CCOCC3)CC2)ccc1Nc1ncc2ccc(-c3ccccc3C(C)=O)n2n1 [Example 1454, 1-(2-{2-[2-Methoxy-4-(4-morpholin-4-yl-piperidin-1-yl)-phenylamino]-pyrrolo[2,1-f][1,2,4]triazin-7-yl}-phenyl)-ethanone] |
| – | – | < 100 nM | < 100 nM | CCN(CC)C1CCN(c2ccc(Nc3ncc4ccc(-c5ccccc5OC)n4n3)cc2)CC1 [Example 1138, [4-(4-Diethylamino-piperidin-1-yl)-phenyl]-[7-(2-methoxy-phenyl)-pyrrolo[2,1-f][1,2,4]triazin-2-yl]-amine] |
